Consider 25 molecules from patent US20130196984A1, “3-AMINO-5-PHENYL-56-DIHYDRO-2H-[1,4]OXAZINES” (Siena Biotech S.p.A., priority 2009, published 2013).

One assay has as its target T1, BACE2 (Homo sapiens, UniProt Q9Y5Z0).
T1 construct: BACE2 enzyme ectodomain (derived from plasmid “pET17b-T7-hu proBACE2”); T7 (N); made in house
T1 sequence (Q9Y5Z0 63-473 limits assumed): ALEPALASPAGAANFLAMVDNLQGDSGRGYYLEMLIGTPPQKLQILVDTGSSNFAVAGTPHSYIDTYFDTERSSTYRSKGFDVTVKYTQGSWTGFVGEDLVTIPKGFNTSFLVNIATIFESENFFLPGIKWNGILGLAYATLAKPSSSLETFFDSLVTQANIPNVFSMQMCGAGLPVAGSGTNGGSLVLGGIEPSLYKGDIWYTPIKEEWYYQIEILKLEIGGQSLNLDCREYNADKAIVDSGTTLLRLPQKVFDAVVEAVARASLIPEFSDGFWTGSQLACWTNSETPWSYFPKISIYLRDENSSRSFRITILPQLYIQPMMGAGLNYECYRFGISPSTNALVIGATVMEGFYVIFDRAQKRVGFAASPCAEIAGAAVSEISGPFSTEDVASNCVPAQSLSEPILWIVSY
Description: Assay A: binding studies using SPR based methods, immobilised BACE2. Particulars: CM5 chip, immobilised BACE2 enzyme ectodomain, acetate buffer pH 4.6, 4% DMSO. For orientation: In SPR one partner is held on a chip, and binding of the other changes the refractive index at the surface.

For assay [1], the target named is T2, BACE1 (Homo sapiens, UniProt P56817). The experiment in a line: Assay A: binding studies using SPR based methods, immobilised BACE1.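 Also: KD from a 1:1 kinetic fit (koff/kon) of real-time association and dissociation curves, or for fast binders from end-of-association equilibrium responses plotted against log concentration.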 The arrangement: 6his-tagged full length BACE 1 expressed in SF9 cells; 6His; made in house; host or cells: SF9 insect cells. As to conditions: CM5 chip, immobilised 6his-tagged full length BACE 1, acetate buffer pH 4.6, 4% DMSO.

The target of assay [2] is T2, BACE1. Description: Cellular Abeta-lowering assay. Type of assay: cell-based. Details: endogenous in cells; host or cells: HEK293 stably transfected with human APP695 wt. As to conditions: HEK293 cells stably transfected with human APP wt (APP695), Aβ40 ELISA of supernatant after 18-20 hrs. A general note: An ELISA detects its analyte on a solid surface through an enzyme-linked reagent.

Counter-ions that a name gives are not always drawn.

T2 sequence (P56817 46-501): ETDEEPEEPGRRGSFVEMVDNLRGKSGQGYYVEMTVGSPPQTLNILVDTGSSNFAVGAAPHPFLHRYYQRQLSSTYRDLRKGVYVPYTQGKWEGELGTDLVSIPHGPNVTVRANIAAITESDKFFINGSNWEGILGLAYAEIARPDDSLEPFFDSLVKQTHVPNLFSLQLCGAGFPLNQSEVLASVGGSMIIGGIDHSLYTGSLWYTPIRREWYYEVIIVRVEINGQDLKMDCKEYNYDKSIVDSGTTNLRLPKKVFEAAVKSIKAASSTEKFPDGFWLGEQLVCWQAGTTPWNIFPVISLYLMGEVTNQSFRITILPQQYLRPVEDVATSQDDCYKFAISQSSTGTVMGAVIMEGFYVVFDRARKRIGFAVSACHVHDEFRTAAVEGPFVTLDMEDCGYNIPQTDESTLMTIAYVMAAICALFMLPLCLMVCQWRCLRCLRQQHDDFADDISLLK

One may read the Kd as the equilibrium constant for the complex coming apart. Higher therefore signals weaker binding. On to `CCc1cc(Cl)cnc1C(=O)Nc1ccc(F)c([C@]2(C)COCC(N)=N2)c1` [Example 70, 5-chloro-3-ethyl-pyridine-2-carboxylic acid [3-((R)-5-amino-3-methyl-3,6-dihydro-2H-[1,4]oxazin-3-yl)-4-fluoro-phenyl]-amide hydrochloride], for which the Kd at BACE2 was found to be 0.045 µM; at BACE1 [1], 1.1 µM.

One may read the IC50 as the concentration needed to halve the response being measured. Higher therefore signals weaker potency in that assay. As for `Cc1cnc(C(=O)Nc2cccc(C3(C)COCC(N)=N3)c2)cn1` (racemic) [Example 65, 5-methyl-pyrazine-2-carboxylic acid [3-((RS)-5-amino-3-methyl-3,6-dihydro-2H-[1,4]oxazin-3-yl)-phenyl]-amide], the figures for the Kd on BACE2 and at BACE1 [1] were 1.12 µM and 2.47 µM, respectively. This molecule displayed an IC50 against BACE1 [2] of 0.18 µM.

As to `CC1(c2cc(NC(=O)c3cc(-c4cccs4)on3)ccc2F)COCC(N)=N1` (racemic) [Example 78, 5-thiophen-2-yl-isoxazole-3-carboxylic acid [3-((RS)-5-amino-3-methyl-3,6-dihydro-2H-[1,4]oxazin-3-yl)-4-fluoro-phenyl]-amide], the results for the Kd on BACE2 and at BACE1 [1] were 6.5 µM and 0.885 µM, respectively. The molecule also gave an IC50 at BACE1 [2] of 0.5 µM.

For the molecule `C[C@@]1(c2cc(NC(=O)C3CC(Cl)C3)ccc2F)COCC(N)=N1` (stereo partly drawn) [Example 58, 3-chloro-cyclobutanecarboxylic acid [3-((R)-5-amino-3-methyl-3,6-dihydro-2H-[1,4]oxazin-3-yl)-4-fluoro-phenyl]-amide], the Kd is 3.6 µM on BACE2 and above 10 µM on BACE1 [1].

As to `Cn1nc(C(=O)Nc2cccc(C3(C)COCC(N)=N3)c2)c2ccccc21` (racemic) [Example 15, (RS)-1-methyl-1H-indazole-3-carboxylic acid [3-(5-amino-3-methyl-3,6-dihydro-2H-[1,4]oxazin-3-yl)-phenyl]-amide], the Kd on BACE2 amounted to 6.7 µM; at BACE1 [1], 20.1 µM.

For `NC1=NC(c2cc(NC(=O)c3ccc(OCC(F)(F)F)cn3)ccc2F)(C2CC2)COC1` (racemic) [Example 23, (RS)-5-(2,2,2-Trifluoro-ethoxy)-pyridine-2-carboxylic acid [3-(5-amino-3-cyclopropyl-3,6-dihydro-2H-[1,4]oxazin-3-yl)-4-fluoro-phenyl]-amide], the Kd came out at 10.8 µM on BACE2 and 0.309 µM at BACE1 [1]. On BACE1 [2], this molecule showed an IC50 of 0.16 µM.

Regarding `Cc1nc(C(=O)Nc2cccc(C3(C)COCC(N)=N3)c2)cs1` (racemic) [Example 10, (RS)-2-methyl-thiazole-4-carboxylic acid [3-(5-amino-3-methyl-3,6-dihydro-2H-[1,4]oxazin-3-yl)-phenyl]-amide], the Kd at BACE2 turned out to be 0.361 µM; at BACE1 [1], 3.3 µM.

Take `C[C@@]1(c2cc(NC(=O)c3ncc(C#N)cc3Cl)ccc2F)COCC(N)=N1` [Example 67, 3-Chloro-5-cyano-pyridine-2-carboxylic acid [3-((R)-5-amino-3-methyl-3,6-dihydro-2H-[1,4]oxazin-3-yl)-4-fluoro-phenyl]-amide hydrochloride]: the figures for the Kd at BACE2 and at BACE1 [1] were 0.015 µM and 0.011 µM, respectively.

`C[C@@]1(c2cc(NC(=O)C(CC3CCCO3)C(F)(F)F)ccc2F)COCC(N)=N1` (mixture of isomers) [Example 85, (RS)—N-[3-((R)-5-amino-3-methyl-3,6-dihydro-2H-[1,4]oxazin-3-yl)-4-fluoro-phenyl]-3,3,3-trifluoro-2-[(RS)-1-(tetrahydro-furan-2-yl)methyl]-propionamide formate]: the Kd at BACE2 was 6.9 µM; on BACE1 [1], above 10 µM.

For `CC1(c2cc(NC(=O)CC(F)(F)F)ccc2F)COCC(N)=N1` (racemic) [Example 79, (RS)—N-[3-(5-Amino-3-methyl-3,6-dihydro-2H-[1,4]oxazin-3-yl)-4-fluoro-phenyl]-3,3,3-trifluoro-propionamide], the Kd on BACE2 came to 4.9 µM; at BACE1 [1], 4 µM.

Turning to `C[C@@]1(c2cc(NC(=O)C3CC(F)(F)C3)ccc2F)COCC(N)=N1` [Example 59, 3,3-difluoro-cyclobutanecarboxylic acid [3-((R)-5-amino-3-methyl-3,6-dihydro-2H-[1,4]oxazin-3-yl)-4-fluoro-phenyl]-amide], the Kd is 4 µM on BACE2 and 9.6 µM at BACE1 [1].

`CC1(c2cccc(NC(=O)c3cc(F)ccc3F)c2)COCC(N)=N1` (racemic) [Example 5, (RS)—N-[3-(5-amino-3-methyl-3,6-dihydro-2H-[1,4]oxazin-3-yl)-phenyl]-2,5-difluoro-benzamide]: the Kd at BACE2 came to 5.3 µM; at BACE1 [1], 62.5 µM.

Take `CC1(C)OCC(N)=N[C@]1(C)c1cc(NC(=O)C2CC2)ccc1F` [Example 54, cyclopropanecarboxylic acid [3-((R)-5-amino-2,2,3-trimethyl-3,6-dihydro-2H-[1,4]oxazin-3-yl)-4-fluoro-phenyl]-amide]: the Kd on BACE2 is 6.1 µM; on BACE1 [1], above 10 µM.

On to `CC1(c2cccc(NC(=O)c3cc4ccccn4n3)c2)COCC(N)=N1` (racemic) [Example 16, (RS)-Pyrazolo[1,5-a]pyridine-2-carboxylic acid [3-(5-amino-3-methyl-3,6-dihydro-2H-[1,4]oxazin-3-yl)-phenyl]-amide], for which the values for the Kd at BACE2 and at BACE1 [1] were 0.513 µM and 1.41 µM, respectively.

As to `CC1(c2cccc(NC(=O)c3ccn(CC(F)(F)F)n3)c2)COCC(N)=N1` (racemic) [Example 14, (RS)-1-(2,2,2-trifluoro-ethyl)-1H-pyrazole-3-carboxylic acid [3-(5-amino-3-methyl-3,6-dihydro-2H-[1,4]oxazin-3-yl)-phenyl]-amide], the values for the Kd at BACE2 and at BACE1 [1] were 5.4 µM and 33 µM, respectively.

As for `COCC1(C(=O)Nc2ccc(F)c([C@]3(C)COCC(N)=N3)c2)CC1` [Example 86, 1-methoxymethyl-cyclopropanecarboxylic acid [3-((R)-5-amino-3-methyl-3,6-dihydro-2H-[1,4]oxazin-3-yl)-4-fluoro-phenyl]-amide formate], the Kd on BACE2 is 3.6 µM; on BACE1 [1] it was above 10 µM.

`CC1(c2cccc(NC(=O)c3ccc(C#N)cn3)c2)COCC(N)=N1` (racemic) [Example 69, 5-cyano-pyridine-2-carboxylic acid [3-((RS)-5-amino-3-methyl-3,6-dihydro-2H-[1,4]oxazin-3-yl)-phenyl]-amide hydrochloride]: the midpoint of inhibition against BACE1 [2], the IC50, lay at 0.009 µM.

Take `C[C@@]1(c2cc(NC=O)ccc2F)COCC(N)=N1` [Example 97, N-[3-((R)-5-Amino-3-methyl-3,6-dihydro-2H-[1,4]oxazin-3-yl)-4-fluoro-phenyl]-formamide formate]: the values for the Kd at BACE2 and at BACE1 [1] were 1.76 µM and above 10 µM, respectively.

Consider `CC1(c2cccc(NC(=O)c3ccc(Cl)cc3F)c2)COCC(N)=N1` (racemic) [Example 3, (RS)—N-[3-(5-amino-3-methyl-3,6-dihydro-2H-[1,4]oxazin-3-yl)-phenyl]-4-chloro-2-fluoro-benzamide], for which the values for the dissociation constant Kd on BACE2 and at BACE1 [1] were 0.58 µM and 1.68 µM, respectively.

Regarding `CCC(C)c1cc(Cl)cnc1C(=O)Nc1ccc(F)c([C@]2(C)COCC(N)=N2)c1` (mixture of isomers) [Example 71, 3-((RS)-sec-butyl)-5-chloro-pyridine-2-carboxylic acid [3-((R)-5-amino-3-methyl-3,6-dihydro-2H-[1,4]oxazin-3-yl)-4-fluoro-phenyl]-amide hydrochloride], the Kd came out at 6 µM on BACE2 and 1.5 µM on BACE1 [1].

On to `CC1(c2cccc(NC(=O)c3ncc(Cl)cc3F)c2)COCC(N)=N1` (racemic) [Example 68, hydrochloride], for which inhibition on BACE1 [2] was half-maximal at 0.01 µM (IC50).

In the case of `C[C@@]1(c2cc(NC(=O)C3CCOC3)ccc2F)COCC(N)=N1` (mixture of isomers) [Example 96, (RS)-tetrahydro-furan-3-carboxylic acid [3-((R)-5-amino-3-methyl-3,6-dihydro-2H-[1,4]oxazin-3-yl)-4-fluoro-phenyl]-amide formate], the figures for the Kd on BACE2 and on BACE1 [1] were 6.1 µM and above 10 µM, respectively.

With `CC(C)CC(=O)Nc1ccc(F)c([C@]2(C)COCC(N)=N2)c1` [Example 95, N-[3-((R)-5-amino-3-methyl-3,6-dihydro-2H-[1,4]oxazin-3-yl)-4-fluoro-phenyl]-3-methyl-butyramide formate], the Kd was 3.6 µM at BACE2 and above 10 µM on BACE1 [1].

Take `C[C@@]1(c2cc(NC(=O)c3ccc(Cl)cn3)ccc2F)CO[C@H](c2ccccc2)C(N)=N1` [Example 30, 5-Chloro-pyridine-2-carboxylic acid [3-((3R,6R)-5-amino-3-methyl-6-phenyl-3,6-dihydro-2H-[1,4]oxazin-3-yl)-4-fluoro-phenyl]-amide]: the IC50 on BACE1 [2] was 0.023 µM.

Turning to `C[C@@]1(c2cc(NC(=O)c3ccc(Cl)cn3)ccc2F)CO[C@@H](c2ccccc2)C(N)=N1` [Example 31, 5-Chloro-pyridine-2-carboxylic acid [3-((3R,6S)-5-amino-3-methyl-6-phenyl-3,6-dihydro-2H-[1,4]oxazin-3-yl)-4-fluoro-phenyl]-amide], it took 0.023 µM to reach half-maximal inhibition against BACE1 [2] (IC50).
